One series has as its system RAW264.7 cells. Nature of the series: CCK-8 cell viability assay. The format is cell-based, mouse. The note with it: 10 μM, 24 h. As to the method:
Cell viability was determined by CCK‐8 assay. RAW264.7 cells or mouse BMDMs cultured in a 96‐well plate were pretreated with various compounds at 10 µM or different concentrations of (+)3C‐20 for 24 h when cells reached 70% confluence and then were treated with DMEM containing 5 µL CCK‐8 reagent (A311, Vazyme, China) in a humidified atmosphere of 5% CO2 and 95% air for 1 h at 37 °C. The UV absorption values of the medium with CCK‐8 were measured at 450 nm in a ThermoFisher plate‐reader (VL0L0TD2, Waltham, USA).
(In general: Tetrazolium dyes change colour on reduction, which living cells bring about.)

Another series deals with mouse BMDMs. Nature of the series: LPS-induced TNF-α release in BMDMs (ELISA). The note with it: BMDM, read-out: IC50, inhibition of LPS-induced TNF-α release. Type of series: cell-based. As to the method: The anti‐inflammatory effects of all (+)‐balasubramide derivatives were evaluated in Lipopolysaccharide (LPS, L2630, Sigma–Aldrich, USA)‐induced macrophage inflammation model. RAW264.7 cells were pretreated with various compounds or (+)3C‐20 at different concentrations for 3 h, and then stimulated with LPS (100 ng mL^−1) for 2 h for the detection of pro‐inflammatory factors expressions. Similarly, following 3 h co‐incubation with (+)3C‐20, mouse BMDMs were stimulated with LPS (100 ng mL^−1) for 3 h. TNF‐α protein in the culture medium supernatant was measured by a commercial ELISA kit (#1 217 202, DAKEWE, China) following the manufacture's protocols.
In general terms: In an ELISA, binding on a coated surface is turned into a signal by an enzyme label.

The next series deals with T1, VDAC1 (Mus musculus, UniProt Q60932).
T1 construct: endogenous in cells; host or cells: RAW264.7
T1 sequence (Q60932 14-296): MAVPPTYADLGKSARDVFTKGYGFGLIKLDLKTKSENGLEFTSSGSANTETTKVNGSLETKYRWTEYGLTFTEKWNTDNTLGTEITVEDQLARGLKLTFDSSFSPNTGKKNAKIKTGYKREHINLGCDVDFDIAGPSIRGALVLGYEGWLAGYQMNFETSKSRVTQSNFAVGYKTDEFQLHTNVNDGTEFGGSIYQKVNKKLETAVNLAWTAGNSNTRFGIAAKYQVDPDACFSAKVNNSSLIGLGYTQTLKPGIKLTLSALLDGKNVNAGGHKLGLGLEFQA
As to the kind of experiment: Cellular thermal shift assay (CETSA) in RAW264.7 cells. Type of series: binding. The following applies: 20 µM, versus DMSO. As to the method:
For CETSA experiments, RAW264.7 cells were incubated with DMSO or (+)3C‐20 (20 µM) in DMEM for 3 h at standard culture conditions. After washed twice with PBS, the cells were collected and divided equally into 12 groups using PBS containing protease and phosphatase inhibitor cocktail. All the samples were heated in a module with pre‐set temperature (37–81 °C) for 3 min, and balanced at 25 °C for another 3 min. Samples were freeze‐thawed with liquid nitrogen three times to completely lyse cells. The 60 µL supernatant containing soluble protein was isolated by centrifugation (13 800 × g, 20 min, 4 °C), mixed with 20 µL laemmli buffer (4 ×), and heated for 10 min at 95 °C. Eventually, the samples were separated by 10% SDS‐PAGE gels for immunoblotting analysis. For ITDRF experiments, the procedures and details were similar to CETSA experiments. In brief, the RAW264.7 cells were seeded in 6‐well plates, incubated with different concentrations of (+)3C‐20, and heated at a designed temperature.

The subject of a further series is sepsis-induced ALI mice. As to the kind of experiment: Sepsis-induced acute lung injury (ALI) model (i.p. LPS). Type of series: in vivo, mouse. As for the experimental part: For sepsis‐induced ALI model, C57BL/6J mice were randomly divided into five experimental groups (n = 8–9) according to weight, including control group (PBS+Vehicle), vehicle group (LPS+Vehicle), Dexamethasone treated group (LPS+DEX at 5 mg kg^−1), (+)3C‐20 treated group (LPS+3C‐20 at 10 mg kg^−1 or 50 mg kg^−1). All mice were weighed and intraperitoneally administered DEX, (+)3C‐20 (dissolved in vehicle solution) or vehicle (5% DMSO, 20% BASF Kolliphor HS15, 75% Saline) daily for 3 consecutive days with the determined injection volume (10 mL kg^−1). After the third administration, except for the control group, mice were intraperitoneally injected with LPS (10 mg kg^−1, 10 mL kg^−1) dissolved in PBS 2 h after vehicle or compound pretreatment. […]
After mice were sacrificed, the left lung tissue fixed with 4% paraformaldehyde was embedded in paraffin, cut into 5 µm thick sections, and stained with hematoxylin and eosin. The slices were scanned with light microscopy (BX53, Olympus, Japan) to evaluate gross morphology and lung damage and inflammation, then the alveolar cells area of the image obtained was calculated with Image J 1.51 (NIH, USA), and the histopathological lung injury scores were determined as previously reported.^[ [62] ^]

Series [1] deals with BMDMs. As to the kind of experiment: NLRP3 inflammasome-induced pyroptosis, LDH release. Type of series: cell-based, mouse. The note with it: 10 µM, LPS plus ATP, Nigericin or MSU, compared with parent compound (+)3J. As for the experimental part: According to previous reports,^[ [65] ^] NLRP3 inflammasome was activated in BMDMs primed with LPS (100 ng mL^−1) for 3 h, and the inflammasome was further assembled using ATP (5 mM, A6419, Sigma–Aldrich, USA) for 45 min, or Nigericin ([…], T3092, TargetMol, USA) for 1 h, or Monosodium Urate Crystal (MSU, 600 µg mL^−1, T41242, TargetMol, USA) for 6 h. To investigate the effect of compounds in NLRP3 inflammasome activation, the cells pretreated with compounds were stimulated with LPS for 3 h and followed by stimulation with ATP for another 45 min, or nigericin for another 1 h, or MSU for another 6 h to activate NLRP3 inflammasome.
Cell culture supernatants were collected and centrifuged to remove cell debris at 800 rpm for 5 min. LDH measurement was performed with an LDH cytotoxicity assay kit (C0017, Beyotime, China) according to the manufacture's instructions. Data were plotted normalizing the OD490 value of the model group as 100%.
(Release of lactate dehydrogenase indicates damage to the cell membrane.)

Series [2] deals with BMDMs. As to the kind of experiment: Cytosolic mtDNA measurement (qPCR) in BMDMs. The following applies: 10 µM. The format is cell-based, mouse. As for the experimental part: BMDMs were stimulated and treated with 10 µM (+)3C‐20 as indicated. Cytosolic mtDNA collection was carried out as previously described.^[ [25] ^] Briefly, BMDMs were washed twice with PBS, harvested, and resuspended in 200 µL mitochondria isolation reagent (Beyotime, C3601) with protease and phosphatase inhibitor cocktail. Cell resuspension was triturated with a glass homogenizer and centrifuged at 11 000 × g for 10 min at 4 °C to pelleted down mitochondria and cell membrane, and the remaining supernatant contained the cytosolic mtDNA that were measured. After DNA purification from the supernatant with FastPure Cell DNA Isolation Mini Kit (DC102‐01, Vazyme, China) according to the manufacturer's instruction, qPCR was performed using specific mtDNA primers (D‐loop, D‐loop1, D‐loop2, D‐loop3).

A further series concerns mice. Nature of the series: Acute toxicity (LD50, sequential method), single intravenous injection. The note with it: i.v.

As a reminder, the IC50 is the point on the concentration scale where inhibition reaches its midpoint. Regarding `O=C(CCc1ccc(C(F)(F)F)cc1)O[C@@H]1C(=O)NCCc2c([nH]c3ccccc23)[C@H]1c1ccc(C(F)(F)F)cc1` [(+)3C-20], in the series with RAW264.7 cells, the cell viability came out at 103.97 ± 3.88. Also, the IC50 in the series on mouse BMDMs was determined as 3.64 µM. Moreover, the “thermal stabilization of VDAC1 (CETSA)” value on VDAC1 is given as “significant thermal stabilization”. Also, in the series on sepsis-induced ALI mice (i.p. 10 or 50 mg kg^−1, 3 days pretreatment, LPS 10 mg kg^−1 i.p.), the “secretion of TNF-α in serum” value is “dose‐dependently decreased”. In the series with sepsis-induced ALI mice (pretreated at 10 or 50 mg kg^−1, versus vehicle group), the “histopathological damage of lung (H&E)” value is listed as “less histopathological damage”. Moreover, in the series with BMDMs [1], the “NLRP3 inflammasome activators-stimulated cell death (membrane blebbing, LDH release)” value was “significantly decreased”. Further, in the series on BMDMs [2], the “increase in cytosolic mtDNA caused by LPS” value is “significantly inhibited”. For the same compound, the Mortality turned out to be 0 in the series with mice (dosage 141.42 mg/kg), 20 in the series on mice (dosage 168.18 mg/kg), 83.33 in the series on mice (dosage 200.00 mg/kg) and 100 in the series with mice (dosage 237.84 mg/kg).
